Measurements taken from patent US12358907B2, “Substituted pyrrolidine amides III” (GRÜNENTHAL GMBH, priority 2019, dated 2025).

Target: glucocorticoid receptor (GAL4 DBD-GR) (Homo sapiens (Human), UniProt P04150)
Assay: GR cell-based assays (GRE agonist / GRE antagonist), CHO-Gal4/GR luciferase reporter
Settings: read-out: IC50 or EC50
Excerpt: Potential selective glucocorticoid receptor modulators of this intervention can be tested for modulation of the activity of the glucocorticoid receptor using cell-based assays. These assays involve a Chinese hamster ovary (CHO) cell line which contains fragments of the glucocorticoid receptor as well as fusion proteins. The glucocorticoid receptor fragments used are capable of binding the ligand (e.g. beclomethasone) to identify molecules that compete for binding with glucocorticoid receptor ligands. In more detail, the glucocorticoid receptor ligand binding domain is fused to the DNA binding domain (DBD) of the transcription factor GAL4 (GAL4 DBD-GR) and is stably integrated into a CHO cell line containing a GAL4-UAS-Luciferase reporter construct. […] After cell lysis the luminescence that is produced by luciferase after addition of the substrate is detected and EC50 or IC50 values can be calcuated. Engagement of molecules which induce gene expression via glucocortocoid receptor binding to the DNA leads to expression of the luciferase gene under the control of the fusion protein GAL4 DBD-GR and therefore to a dose-dependent increase of the luminescence signal. Binding of molecules which repress beclomethasone-induced gene expression of the luciferase gene under the control of the fusion protein GAL4 DBD-GR leads to a dose-dependent reduction of the luminescence signal.
The reporter cell line CHO-Gal4/GR consisted of a chinese hamster ovary (CHO) cell line (Leibniz Institute DSMZ—German Collection of Microorganisms and Cell Cultures GmbH: ACC-110) containing a firefly luciferase gene under the control of the GR ligand binding domain fused to the DNA binding domain (DBD) of GAL4 (GAL4 DBD-GR) stably integrated into CHO cells. This cell line was established by stable transfection of CHO cells with a GAL4-UAS-Luciferase reporter construct. In a subsequent step the ligand binding domain of the GR cloned into pIRES2-EGFP-GAL4 containing the DNA binding domain of GAL4 from pFA-AT2 was transfected. This fusion construct activated firefly luciferase expression under the control of a multimerized GAL4 upstream activation sequence (UAS). The signal of the emitted luminescence was recorded by the FLIPR^TETRA. This allowed for specific detection of ligand-induced activation of the GR and therefore for the identification of compounds with agonistic properties. The GAL4/UAS reporter was premixed with a vector that constitutively expressed Renilla luciferase, which served as an internal positive control for transfection efficiency.
The complete culture medium for the assay was: • DMEM F-12 (1:1) MIXTURE (LONZA cat. No: BE04-687F/U1) 500 mL • 5 mL of 100 mM Sodium Pyruvate (LONZA cat. No: BE12-115E) • 25 mL of 7.5% Sodium Bicarbonate (LONZA cat. No BE17-613E) • 6.5 mL of 1 M Hepes (LONZA cat. No: BE17-737E) • 5 mL of 100× Penicillin/Streptomycin (LONZA cat. No DE17-602E) • 50 mL of Fetal Bovine Serum (Euroclone cat. No ECS 0180L) • 0.25 mL of 10 mg/mL Puromycin (InvivoGen cat.: ant-pr-1) • 0.5 mL of 100 mg/mL Zeocin (InvivoGen cat.: ant-zn-1)
Cryo-preserved CHO-Gal4/GR cells were suspended in complete medium and 5000 cells/25 μl/well were seeded into the wells of 384-well polystyrene assay plates (Thermo Scientific, cat. #4332) and cultured at 37° C., 5% CO2 and 95% humidity. After 24 hours growth medium was carefully removed and replaced by 30 μl Opti-MEM (GIBCO, cat. #31985062) as assay buffer. To test the compounds an 8-point half-log compound dilution curve was generated in 100% DMSO starting from a 2 mM stock and compounds were then diluted 1:50 in Opti-MEM. 10 μl of compounds were then added to the wells containing 30 μl Opti-MEM resulting in a final assay concentration range from 10 μM to 0.003 μM in 0.5% DMSO. Compounds were tested at 8 concentrations in quadruplicate data points. […] Finally, cells were lysed with 20 μl of Triton/Luciferin solution and the signal of the emitted luminescence was recorded at the FLIPR^TETRA for 2 minutes. […]

Chain of glucocorticoid receptor (GAL4 DBD-GR) (P04150 524-758): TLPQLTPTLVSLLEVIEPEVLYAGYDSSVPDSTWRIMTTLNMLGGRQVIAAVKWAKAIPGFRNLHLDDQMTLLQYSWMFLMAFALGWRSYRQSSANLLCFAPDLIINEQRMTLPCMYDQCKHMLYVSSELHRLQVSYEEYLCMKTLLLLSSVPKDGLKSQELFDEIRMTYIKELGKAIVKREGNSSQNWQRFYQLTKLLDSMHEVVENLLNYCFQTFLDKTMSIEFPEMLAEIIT

| Structure (SMILES) | IC50 [nM] |
| --- | --- |
| C[C@@H]1C(=O)N(c2ccc3c(cnn3-c3ccc(F)cc3)c2)[C@H](c2ccc(Cl)s2)[C@H]1NS(C)(=O)=O [Example 114, N-[(2S,3S,4S)-2-(5-Chloro-thiophen-2-yl)-1-[1-(4-fluorophenyl)-1H-indazol-5-yl]-4-methyl-5-oxo-pyrrolidin-3-yl]-methanesulfonic acid amide] | 100 to 1000 |
| Cc1cccc([C@@H]2[C@@H](NS(C)(=O)=O)[C@H](C)C(=O)N2c2ccc3c(cnn3-c3ccc(F)cc3)c2)c1 (racemic) [Example 62, N-[rac-(2R,3S,4S)-1-[1-(4-Fluorophenyl)-1H-indazol-5-yl]-4-methyl-2-m-tolyl-5-oxo-pyrrolidin-3-yl]-methanesulfonic acid amide] | 100 to 1000 |
| C[C@@H]1C(=O)N(c2ccc3c(cnn3-c3ccc(F)cc3)c2)[C@H](c2ccccc2)[C@H]1NC(=O)c1cccnc1 (racemic) [Example 65, N-[rac-(2R,3S,4S)-1-[1-(4-Fluorophenyl)-1H-indazol-5-yl]-4-methyl-5-oxo-2-phenyl-pyrrolidin-3-yl]-pyridine-3-carboxylic acid amide] | < 100 |
| CC[C@@H]1[C@@H](NC(=O)c2ncccn2)[C@H](Cc2ccccc2)C(=O)N1c1ccc2c(cnn2-c2ccc(F)cc2)c1 (racemic) [Example 90, N-[rac-(2R,3S,4S)-4-Benzyl-2-ethyl-1-[1-(4-fluorophenyl)-1H-indazol-5-yl]-5-oxo-pyrrolidin-3-yl]-pyrimidine-2-carboxylic acid amide] | 1000 to 15000 |
| Cc1nocc1C(=O)N[C@H]1[C@H](c2ccccc2)N(c2ccc3c(cnn3-c3ccc(F)cc3)c2)C(=O)C1(C)C [Example 40b, N-((2S,3R)-1-(1-(4-fluorophenyl)-1H-indazol-5-yl)-4,4-dimethyl-5-oxo-2-phenylpyrrolidin-3-yl)-3-methylisoxazole-4-carboxamide] | 100 to 1000 |
| C[C@@H]1C(=O)N(c2ccc3c(cnn3-c3ccc(F)cc3)c2)[C@H](c2ccn(C)n2)[C@H]1NC(=O)C(C)(F)F (racemic) [Example 120, 2,2-Difluoro-N-[rac-(2S,3S,4S)-1-[1-(4-fluorophenyl)-1H-indazol-5-yl]-4-methyl-2-(1-methyl-1H-pyrazol-3-yl)-5-oxo-pyrrolidin-3-yl]-propionamide] | 1000 to 15000 |
| Cc1cccc([C@@H]2[C@@H](NS(C)(=O)=O)[C@@H](C)C(=O)N2c2ccc3c(cnn3-c3ccc(F)cc3)c2)c1 (racemic) [Example 76, N-[rac-(2R,3S,4R)-1-[1-(4-Fluorophenyl)-1H-indazol-5-yl]-4-methyl-2-m-tolyl-5-oxo-pyrrolidin-3-yl]-methanesulfonic acid amide] | < 100 |
| C[C@@H]1C(=O)N(c2ccc3c(cnn3-c3ccc(F)cc3)c2)[C@H](c2ccccc2Cl)[C@H]1NC(=O)C(C)(F)F (racemic) [Example 47, N-[rac-(2R,3S,4S)-2-(2-Chlorophenyl)-1-[1-(4-fluorophenyl)-1H-indazol-5-yl]-4-methyl-5-oxo-pyrrolidin-3-yl]-2,2-difluoro-propionamide] | < 100 |
| C[C@@H]1C(=O)N(c2ccc3c(cnn3-c3ccc(F)cc3)c2)[C@H](c2ccc(Cl)s2)[C@H]1NC(=O)C(C)(F)F (racemic) [Example 123, N-[rac-(2S,3S,4S)-2-(5-Chloro-thiophen-2-yl)-1-[1-(4-fluorophenyl)-1H-indazol-5-yl]-4-methyl-5-oxo-pyrrolidin-3-yl]-2,2-difluoro-propionamide] | < 100 |
| Cc1cccc([C@@H]2[C@@H](NC(=O)c3cccnc3)[C@H](C)C(=O)N2c2ccc3c(cnn3-c3ccc(F)cc3)c2)c1 (racemic) [Example 68, N-[rac-(2R,3S,4S)-1-[1-(4-Fluorophenyl)-1H-indazol-5-yl]-4-methyl-2-m-tolyl-5-oxo-pyrrolidin-3-yl]-pyridine-3-carboxylic acid amide] | 100 to 1000 |
| CC1(C)C(=O)N(c2ccc3c(cnn3-c3ccc(F)cc3)c2)[C@H](c2ccccc2)[C@H]1NS(C)(=O)=O [Example 34a, N-((2R,3S)-1-(1-(4-fluorophenyl)-1H-indazol-5-yl)-4,4-dimethyl-5-oxo-2-phenylpyrrolidin-3-yl)methanesulfonamide] | < 100 |
| O=C(N[C@@H]1[C@@H](c2ccccc2)N(c2cnc3c(cnn3-c3ccc(F)cc3)c2)C(=O)C12CC2)C1CC1 (racemic) [Example 31, N-[rac-((6R,7S)-5-(1-(4-fluorophenyl)-1H-pyrazolo[3,4-b]pyridin-5-yl)-4-oxo-6-phenyl-5-azaspiro[2.4]heptan-7-yl)]cyclopropanecarboxamide] | 100 to 1000 |
| Cc1cccc([C@@H]2[C@@H](NC(=O)C3CC3)[C@H](C)C(=O)N2c2ccc3c(cnn3-c3ccc(F)cc3)c2)c1 (racemic) [Example 63, N-[rac-(2R,3S,4S)-1-[1-(4-Fluorophenyl)-1H-indazol-5-yl]-4-methyl-2-m-tolyl-5-oxo-pyrrolidin-3-yl]-cyclopropanecarboxylic acid amide] | 100 to 1000 |
| C[C@@]1(F)C(=O)N(c2ccc3c(cnn3-c3ccc(F)cc3)c2)[C@H](c2ccccc2)[C@H]1NC(=O)C1CC1 (racemic) [Example 129, N-[rac-(2R,3R,4S)-4-Fluoro-1-[1-(4-fluorophenyl)-1H-indazol-5-yl]-4-methyl-5-oxo-2-phenyl-pyrrolidin-3-yl]-cyclopropanecarboxylic acid amide] | < 100 |
| Cc1cccc([C@@H]2[C@@H](NC(=O)c3scnc3C)[C@H](C)C(=O)N2c2ccc3c(cnn3-c3ccc(F)cc3)c2)c1 (racemic) [Example 67, N-[rac-(2R,3S,4S)-1-[1-(4-Fluorophenyl)-1H-indazol-5-yl]-4-methyl-2-m-tolyl-5-oxo-pyrrolidin-3-yl]-4-methyl-thiazole-5-carboxylic acid amide] | < 100 |
| Cc1cccc([C@@H]2[C@@H](NC(=O)C(C)(F)F)[C@@H](C)C(=O)N2c2ccc3c(cnn3-c3ccc(F)cc3)c2)c1 (racemic) [Example 77, 2,2-Difluoro-N-[rac-(2R,3S,4R)-1-[1-(4-fluorophenyl)-1H-indazol-5-yl]-4-methyl-2-m-tolyl-5-oxo-pyrrolidin-3-yl]-propionamide] | < 100 |
| CC1(C)C(=O)N(c2ccc3c(cnn3-c3ccc(F)cc3)c2)[C@@H](c2ccccc2)[C@@H]1NS(C)(=O)=O [Example 34b, N-((2S,3R)-1-(1-(4-fluorophenyl)-1H-indazol-5-yl)-4,4-dimethyl-5-oxo-2-phenylpyrrolidin-3-yl)methanesulfonamide] | 100 to 1000 |
| O=C(N[C@H]1C(CCc2ccccc2)C(=O)N(c2ccc3c(cnn3-c3ccc(F)cc3)c2)[C@@H]1c1ccccc1)C1CC1 (single isomer, unassigned) [Example 127] | 100 to 1000 |
| C[C@H]1C(=O)N(c2ccc3c(cnn3-c3ccc(F)cc3)c2)[C@H](c2ccc(Cl)s2)[C@H]1NC(=O)C(C)(F)F (racemic) [Example 125, N-[rac-(2S,3S,4R)-2-(5-Chloro-thiophen-2-yl)-1-[1-(4-fluorophenyl)-1H-indazol-5-yl]-4-methyl-5-oxo-pyrrolidin-3-yl]-2,2-difluoro-propionamide] | < 100 |
| Cc1cccc([C@@H]2[C@@H](NC(=O)c3ncccn3)[C@@H](C)C(=O)N2c2ccc3c(cnn3-c3ccc(F)cc3)c2)c1 (racemic) [Example 74, N-[rac-(2R,3S,4R)-1-[1-(4-Fluorophenyl)-1H-indazol-5-yl]-4-methyl-2-m-tolyl-5-oxo-pyrrolidin-3-yl]-pyrimidine-2-carboxylic acid amide] | 100 to 1000 |
